The record followed here is article PMC6316600, “Analgesic Activity of Acid-Sensing Ion Channel 3 (ASIС3) Inhibitors: Sea Anemones Peptides Ugr9-1 and APETx2 versus Low Molecular Weight Compounds” (Marine Drugs, 2018).

One experiment addresses T1, human ASIC3 (Homo sapiens, UniProt Q9UHC3).
T1 construct: host or cells: Xenopus laevis oocytes (cRNA injection)
T1 sequence (Q9UHC3 1-531): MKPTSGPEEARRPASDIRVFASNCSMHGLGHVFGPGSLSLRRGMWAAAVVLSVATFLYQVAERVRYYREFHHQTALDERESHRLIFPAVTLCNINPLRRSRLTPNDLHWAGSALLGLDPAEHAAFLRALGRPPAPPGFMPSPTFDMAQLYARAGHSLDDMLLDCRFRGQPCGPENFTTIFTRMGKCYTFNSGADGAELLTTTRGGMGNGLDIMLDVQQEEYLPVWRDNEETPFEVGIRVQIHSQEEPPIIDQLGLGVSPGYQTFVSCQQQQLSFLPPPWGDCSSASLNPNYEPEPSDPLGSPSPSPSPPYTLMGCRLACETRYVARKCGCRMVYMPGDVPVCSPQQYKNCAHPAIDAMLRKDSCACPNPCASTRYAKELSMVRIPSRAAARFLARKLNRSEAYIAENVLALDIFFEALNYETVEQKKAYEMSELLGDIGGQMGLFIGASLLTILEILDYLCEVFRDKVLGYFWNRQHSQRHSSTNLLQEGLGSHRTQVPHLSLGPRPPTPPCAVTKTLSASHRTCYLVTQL
The experiment in a line: Inhibition of sustained hASIC3 current, two-electrode voltage clamp, Xenopus laevis oocytes. The following applies: for IC50 / Hill coefficient, sustained currents: hASIC3 in X. laevis oocytes, mean ± SEM (n = 4–6); for IC50: compound applied with 3.5 s pH stimulus, holding -50 mV, logistic fit, read-out: IC50, sustained currents. The class given is cell-based. The source says: Whole-cell currents were induced by pH drops and recorded at the holding potential −50 mV. (A) Effect of ligands on the transient component of current at conditioning pH 7.8. The control trace is shown first; (B) Effect of ligands on the sustained component at conditioning pH 7.3. The black line is the control trace, and the red line is the trace of activation in the presence of a ligand. Dose-response curves for transient (C) and sustained (D) currents’ inhibitions are shown. Data are shown as mean ± SEM (n = 4–6) and fitted with the logistic equation (solid lines).
The analysis of a sustained component of the current was carried out in a bath solution (pH 7.3) where the transient component of the current was completely desensitized by protons. The pH activation stimulus (3.5 s) was applied in the presence of the testing compound (Figure 1B).
X. laevis oocytes were removed surgically and defolliculated by collagenase (Sigma-Aldrich, Moscow, Russia). Oocytes were injected with 2.5 to 10 ng of human ASIC3 cRNA (AF057711.1). […] To induce transient and/or sustained currents, two different protocols with different conditioning pH were used. Microelectrodes were filled with a 3 M KCl solution. The working buffer solution was ND-96 titrated by NaOH to pH 7.8 or 7.3. The solution for the pH shift was constructed based on the ND-96 solution, in which 5 mM HEPES was replaced with 10 mM acetic acid (pH 4.0) or 10 mM MES (pH 5.5) in a supplementary 0.1% BSA solution. The duration of the activation pulses was 3.5 s.
The analysis of the electrophysiological data was performed using the OriginPro 8.6 programme.
On the technique in general: In two-electrode clamp one electrode senses voltage and the other passes current.

The next experiment has as its system mice. The experiment in a line: Acetic acid-induced writhing. The class given is in vivo, CD-1 mice. The protocol:
Acetic acid-induced writhing is based on irritation of tissues and organs of the abdomen by low pH and could be considered the most appropriate test for influence on acid-induced pain. […] It is interesting that the effects of sevanol and Ugr9-1 plateaued at a wide range of doses (0.01–1mg/kg for sevanol and 0.02–1 mg/kg Ugr9-1) (Figure 3C,D).
Figure 3 Effects of ligands in an acetic acid-induced writhing test. […] (A) Efficacy of ASIC3 antagonists at a dose of 1 mg/kg. (B–D) Dose-dependent chart of ligands’ effects: APETx2 (B), sevanol (C), and Ugr9-1 (D). Results are presented as mean ± SEM (n = 8). ** p < 0.01, *** p < 0.001 versus saline group (ANOVA followed by a Tukey’s test).
Adult male CD-1 mice (Animal Breeding Facility Branch of Shemyakin-Ovchinnikov Institute of Bioorganic Chemistry, Russian Academy of Sciences, Pushchino, Russia) weighing 20–25 g were used. Animals that originally passed clinical examination that confirmed no deviations in health were divided into groups (at least eight male mice per group) using the principle of randomization. The average body weight of animals in each group was not statistically different between groups. Animals were housed at room temperature (23 ± 2 °C) and subjected to a 12-h light-dark cycle with food and water available ad libitum. All experiments were performed after receiving approval from the Animal Care and Use Committee of the Branch of the Institute of Bioorganic Chemistry, Russian Academy of Sciences (IBCh RAS) (Pushchino, Russia Federation). The samples were administered intramuscularly 2 h before testing (4 h in the open field test). […]
Separate groups of mice were used. Writhes were caused 2 h after the intramuscular injection of the samples (saline for control mice) with the injection of 0.6% acetic acid in saline (10 mL/kg intraperitoneally). Mice were immediately placed inside transparent glass cylinders, and the latency of a first writhe and the number of writhes were recorded for 15 min.
The data significance in animal tests was determined by an analysis of variance followed by a Tukey’s test. Data are presented as the mean ± SEM.
On the technique in general: In writhing tests, fewer writhes than in controls are read as antinociception.

Setting [1] is: intramuscular, 2 h before, n = 8.

Each structure is given as a SMILES string. Entries after “also recorded” stand apart in the source; their conditions may differ. Bridge positions count the residues as written; N and C are the ends. Peptide text beside a SMILES is read from it.

As a reminder, the IC50 is the concentration needed to halve the response being measured.

`O=C(O)C[C@H](C(=O)O)[C@@H](OC(=O)C1=Cc2cc(O)c(O)cc2[C@@H](c2ccc(O)c(O)c2)[C@@H]1C(=O)O[C@@H](C(=O)O)[C@H](CC(=O)O)C(=O)O)C(=O)O` [sevanol]: the “Rank of potency, sustained component inhibition” value on human ASIC3 is given as “Ugr9-1 > sevanol > diclofenac”. The “Inhibition of sustained current amplitude at saturation concentration” value on human ASIC3 (about 3 mM, conditioning pH 7.3) is on record as “approximately 50%”. In addition, on human ASIC3 (conditioning pH 7.3), the “Inhibition of sustained current (in words)” value (shortened to “Inhibition … (in words)”) was “decreased transient and sustained components of the current”; the half-maximal inhibitory concentration (IC50) was 259 ± 39 µM; the “Hill coefficient, sustained currents” value was found to be 2.4 ± 0.4. In addition, at human ASIC3 (conditioning pH 7.3, listed as Sevanol), the “Inhibition … (in words)” value was “significantly weaker in their inhibitory potency when compared to peptide toxin Ugr9-1”. Also, in the experiment with mice (10 mg/kg intramuscular, 2 h before, n = 8), the Inhibition of writhing turned out to be 76%. In the experiment on mice (intramuscular, 2 h before), the “Writhing test result (in words)” value was “attenuated the response to the intraperitoneal administration of acetic acid; also recorded: The efficacy of sevanol was also high”. In addition, the “Dose of maximal effect, writhing test” value with mice (setting [1]) came to 10 mg/kg. For the same compound, the “In vivo effect, compared with peptides” value with mice (sevanol versus APETx2 and Ugr9-1) is reported as “almost equipotent effect in vivo”.
On to `O=C(O)Cc1ccccc1Nc1c(Cl)cccc1Cl` [diclofenac, reference compound], for which the “Rank of potency, sustained component inhibition” value at human ASIC3 is “Ugr9-1 > sevanol > diclofenac”. The inhibition at 3000 µM at human ASIC3 (about 3 mM, conditioning pH 7.3, read-out: Inhibition of sustained current amplitude at saturation concentration) is roughly 50%. Further, at human ASIC3 (conditioning pH 7.3), the “Inhibition … (in words)” value was “significantly weaker in their inhibitory potency when compared to peptide toxin Ugr9-1” and the IC50 amounted to 856 ± 106 µM. For the same compound, the “Maximal effect of reducing pain, writhing test” value in the experiment with mice (intramuscular, 2 h before, all doses) is given as ~ 75%.
In the case of `CC[C@H](C)[C@H](N)C(=O)N[C@@H](CO)C(=O)N[C@H](C(=O)N[C@@H](CC(=O)O)C(=O)N1CCC[C@H]1C(=O)N1CCC[C@H]1C(=O)N[C@H]1CSSC[C@@H](C(=O)NCC(=O)N[C@@H](C)C(=O)N[C@H](C(=O)O)C(C)C)NC(=O)CNC(=O)[C@H](Cc2ccc(O)cc2)NC(=O)[C@H](C)NC(=O)[C@H](CC(=O)O)NC(=O)[C@H](Cc2ccc(O)cc2)NC(=O)[C@H](C(C)C)NC(=O)[C@@H]2CSSC[C@H](NC(=O)[C@H](Cc3ccccc3)NC(=O)[C@H](CCCNC(=N)N)NC1=O)C(=O)N[C@@H](Cc1ccc(O)cc1)C(=O)N[C@@H](Cc1c[nH]cn1)C(=O)N[C@@H](CCCNC(=N)N)C(=O)N[C@@H](CC(=O)O)C(=O)NCC(=O)N[C@@H](CO)C(=O)NCC(=O)N[C@@H](CC(N)=O)C(=O)N2)[C@@H](C)CC` [Ugr9-1] (H-ISIDPPCRFCYHRDGSGNCVYDAYGCGAV-OH; disulfide 7-26, 10-19; N-terminus and C-terminus assumed), the “Rank of potency, sustained component inhibition” value on human ASIC3 was “Ugr9-1 > sevanol > diclofenac”. Besides, at human ASIC3 (conditioning pH 7.3), the “Inhibition … (in words)” value was “decreased transient and sustained components of the current”; the “Hill coefficient, sustained currents” value is 1.74 ± 0.51. The inhibition at 50 µM on human ASIC3 (pH 7.3, read-out: Inhibition of sustained current amplitude at saturation concentration) is roughly 50%. For the same compound, the “Effective dose, lower than that of APETx2, writhing test” value in the experiment on mice (Ugr9-1 versus APETx2) was 10 times. In addition, the “Writhing test result (in words)” value in the experiment on mice (intramuscular, 2 h before) is “attenuated the response to the intraperitoneal administration of acetic acid; also recorded: The most stable effect was produced by Ugr9-1, and it was slightly more significant in lower doses (0.002 mg/kg)”. In the experiment with mice (setting [1]), the “Dose of maximal effect, writhing test” value was determined as 0.02 mg/kg.
